From US12606585B2, “Fluorinated hexoses” (Stichting Radboud Universiteit, priority 2020, dated 2026)

Columns and labels:
[1] = test system: THP-1 cells; assay: Onset and recovery of inhibition; format: cell-based; settings: 100 μM, AAL lectin; for inhibition at 100 µM: Homo sapiens, 72 h, read-out: inhibition of fucosylation after 3 days
Procedure: Cells were cultured in medium containing different concentrations of unnatural sugar derivatives on 96-wells plates (suspension cell lines; 13,000-20,000 cells per well) (Thermo Scientific). DMSO, at same dilution as the unnatural sugar derivative stock solutions, was used as a positive control for lectin staining; P-Fuc2F was used for all concentrations as negative control. Cells were incubated for eight days at 37° C. and 5% CO2 in a humidified incubator. Medium was changed after three and six days of incubation with cell culture medium without unnatural sugar derivatives. Every day cells were harvested and washed with 100 μl 1× CF-blocking buffer (Vector Laboratories Inc.) containing 1 mM CaCl2) and 1 mM MgCl2. The cells were then resuspended in 50 μl 0.5 μg/ml of either 0.5 ng/ml biotinylated AAL, AOL, SNA, MAL-II, WGA, LCA, PSA, PNA, PHA-L or GSL-1 lectin in 1× carbo-free blocking buffer or with 50 μl of non-supplemented 1× carbo-free blocking buffer and incubated at 4-8° C. for 45-60 min. Cells were washed with 3×100 μl PBA (PBS containing 1% v/v FBS and 0.1% w/w sodium azide), incubated with 40 μl 1 μg/ml Streptavidin-phycoerythrin conjugate (Invitrogen, eBioscience) in PBA for 10-15 min at 4-8° C. Cells were then washed again with 3×100 μl PBA, resuspended in PBA and fluorescence was measured with a flow cytometer (Beckman & Dickinson FACS-Calibur). Each replicate for each condition with >10,000 gated events. Data was processed using FlowJo (FlowJo LLC). Percentage of lectin binding was obtained by normalizing the MFI values to the MFI values of the respective DMSO control.
The onset of inhibition and duration for recovery was evaluated on THP-1 cells with 100 and 10 μM compound using the AAL lectin (FIG. 5). At 100 μM concentration compounds 9 and 10 inhibit fucosylation after 1 day and to over 50% after 3 days. Fucosylation was fully recovered to normal 5 levels on day 6. […] Similar results were obtained using the AOL lectin.

[2] = test system: THP-1 cells; assay: Lectin specificity: total cell surface glycosylation with additional lectins; format: cell-based; settings: 100 μM and 10 μM, three days; for LCA and PSA lectin binding: lectins restricted to α1,6-linked core fucosylation
Procedure: Protocol below was repeated until n>=3 for each compounds using cells at different passage numbers. Culture medium was prepared in 96-wells plates (Thermo Scientific). For every unnatural sugar derivative, 11 wells containing 100 μM of unnatural sugar derivatives and 11 wells containing 10 μM of the unnatural sugar derivatives were prepared. DMSO, at same dilution as the tested probes, was used as a positive control for lectin staining. THP-1 Cells were cultured in the plates (20,000 cells per well) and the cells were incubated for three days at 37° C. and 5% CO2. Cells were harvested and washed with 100 μl 1×CF-blocking buffer (Vector Laboratories Inc.) containing 1 mM CaCl2) and 1 mM MgCl2. The cells were then resuspended in 50 μl 0.5 μg/ml of either 0.5 ng/ml biotinylated AAL, AOL, SNA, MAL-II, WGA, LCA, PSA, PNA, PHA-L or GSL-1 lectin in 1× carbo-free blocking buffer or with 50 μl of non-supplemented 1× carbo-free blocking buffer and incubated at 4-8° C. for 45-60 min. Cells were washed with 3×100 μl PBA (PBS containing 1% v/v FBS and 0.1% w/w sodium azide), incubated with 40 μl 1 μg/ml Streptavidin-phycoerythrin conjugate (Invitrogen, eBioscience) in PBA for 10-15 min at 4-8° C. Cells were then washed again with 3×100 μl PBA, resuspended in PBA and fluorescence was measured with a flow cytometer (Beckman & Dickinson FACS-Calibur). Each replicate for each condition with >10,000 gated events. Data was processed using FlowJo (FlowJo LLC). Percentage of lectin binding was obtained by normalizing the MFI values to the MFI values of the respective DMSO control.
Compounds 9 & 10 are mannose-1-phosphate derivatives, so other glycosylation pathways such as mannosylation could be imagined to be affected. Having established the ability to inhibit cellular fucosylation with AAL and AOL lectins, the effect on total cell surface glycosylation was evaluated using additional lectins (FIG. 4A and FIG. 4B). N-glycans consist of a biantennary mannose containing backbone, recognized by WGA, and can be branched recognized by L-Pha. These branches can be terminated with galactose, recognized by PNA, or α2,6- and α2,3-linked sialic acids recognized by SNA and MAL-II, respectively. […] The decrease in binding for these lectins can thus be attributed to defucosylation as confirmed by a decrease in AAL and AOL binding and no effect on WGA binding.

CC(=O)OC1C(OC(C)=O)[C@H](OC(C)=O)C(C(F)(F)F)O[C@@H]1OP(=O)(OCCSC(C)=O)OCCSC(C)=O (stereo partly drawn) [P-D-Rha6F3-1P (10), Di-(S-acetyl-2-thioethyl)-(2,3,4-tri-O-acetyl-6,6,6-trifluoro-α-D-mannopyranoside) phosphate]
onset of fucosylation inhibition [1]: 1 days
inhibition at 100 µM [1]: > 50%
effect on binding of WGA, L-Pha, PNA, SNA and MAL-II lectins [2]: No significant effect
LCA and PSA lectin binding [2]: decreased binding

CC(=O)OC1C(OC(C)=O)[C@H](OC(C)=O)C(C(F)F)O[C@@H]1OP(=O)(OCCSC(C)=O)OCCSC(C)=O (stereo partly drawn) [P-D-Rha6F2-1P (9), Di-(S-acetyl-2-thioethyl)-(2,3,4-tri-O-acetyl-6,6-difluoro-α-D-rhamnopyranoside) phosphate]
onset of fucosylation inhibition [1]: 1 days
inhibition at 100 µM [1]: > 50%
effect on binding of WGA, L-Pha, PNA, SNA and MAL-II lectins [2]: No significant effect
LCA and PSA lectin binding [2]: decreased binding
